Experimental data from patent US11684067B2, “Generation of peroxyformic acid through polyhydric alcohol formate” (priority 2014, dated 2023).
“And” between values parts separate entries of the source, which are not always exact repeats. Equal values may be shown once.

Assays:
[1] = system: P. aeruginosa ATCC 15442 biofilm; assay: Biofilm disinfectant efficacy, CDC Biofilm Reactor, Single Tube Method (ASTM E2562-12, E2871-12); assay type: cell-based, Pseudomonas aeruginosa
Procedure: P. aeruginosa ATCC 15442 biofilm was grown on the surface of 24 polycarbonate coupons following ASTM method E2562-12: Standard Test Method for Quantification of Pseudomonas aeruginosa Biofilm Grown with High Shear and Continuous Flow using CDC Biofilm Reactor. After 48 hours of biofilm establishment, the coupons were removed from the reactor and placed into individual centrifuge tubes. Three coupons per test substance were tested for disinfectant efficacy using ASTM method E2871-12: Standard Test Method for Evaluating Disinfectant Efficacy against Pseudomonas aeruginosa Biofilm Grown in CDC Biofilm Reactor using Single Tube Method. Each coupon was exposed to 4 mL of chemistry for an exposure time of 3 hours. […] This was followed with a series of vortexing and sonicating steps to remove any biofilm from the coupon surface into the solution for plating and enumeration.
P. aeruginosa ATCC 15442 biofilm was grown on the surface of 24 polycarbonate coupons following ASTM method E2562-12: Standard Test Method for Quantification of Pseudomonas aeruginosa Biofilm Grown with High Shear and Continuous Flow using CDC Biofilm Reactor. After 48 hours of biofilm establishment, the coupons were removed from the reactor and placed into individual centrifuge tubes. […]

[2] = system: Nalidixic acid resistant E. coli O157:H7; assay: Reduction of E. coli on raw beef brisket, dip treatment; assay type: cell-based; conditions: 10 minutes dip, ambient, 220 ppm POAA / 180 ppm PFA / 50 ppm LAS per formula (Table 15)
Procedure: Nalidixic acid resistant E. coli O157:H7 was used to evaluate the efficacy in treatment with performic acid composition on raw beef brisket according to the conditions shown in Table 14.
The generation of PFA from the perhydrolysis of glycerol formates, PFA formulations, POAA formations and controls were evaluated as shown in Table 15.

[3] = system: Bacillus subtilis ATCC 19659; assay: Sporicidal activity of ester PFA, dirty conditions (Example 20); assay type: cell-based; conditions: 5 minutes
Description: (§1) Various Bacillus and Aspergillus pathogens were used to evaluate the micro efficacy of ester PFA generated according to methods of the present invention.

[4] = system: Bacillus subtilis ATCC 6633; assay: as above; assay type: cell-based; conditions: 5 minutes
Description: as §1

[5] = system: Aspergillus brasiliensis ATCC 16404; assay: Fungicidal activity of ester PFA, dirty conditions (Example 20); assay type: cell-based; conditions: 5 minutes
Description: as §1

[6] = system: Bacillus subitilisATCC 19659; assay: Sporicidal activity of ester PFA versus POAA (Example 21); assay type: cell-based, Bacillus subtilis; conditions: for Average CFU/mL / Log10 Growth / Log10 Reduction: 20°C, dirty
Description: Bacillus pathogens were used to evaluate the micro efficacy of ester PFA generated according to methods of the present invention in comparison to POAA.

[7] = system: Bacillus subitilisATCC 19659; assay: Sporicidal activity of ester PFA versus POAA (Example 23); assay type: cell-based, Bacillus subtilis; conditions: 20°C, dirty
Description: Additional Bacillus pathogens were used to evaluate the micro efficacy of ester PFA generated according to methods of the present invention in comparison to POAA.

[8] = system: Enterococcus hirae ATCC 10541; assay: Bactericidal activity of ester PFA versus POAA, EN 1276, dirty conditions; assay type: cell-based; conditions: 20°C
Description: (§2) Additional Staphylococcus, Enterococcus and Pseudomonas pathogens were used to evaluate the micro efficacy of ester PFA generated according to methods of the present invention in comparison to POAA.

[9] = system: Pseudomonas aeruginosa ATCC 15442; assay: as above; assay type: cell-based; conditions: 20°C
Description: as §2

[10] = system: Staphylococcus aureus ATCC 6538; assay: as above; assay type: cell-based; conditions: 20°C
Description: as §2

[11] = Stability of PFA in use solution in the presence of soils, iodometric titration; assay type: physicochemical; conditions: 500 ppm PFA in 500 ppm hard water with soil load, ambient; FIG. 22
Procedure: To 200 g of 500 ppm hard water containing individual soil load at the desired concentration, was added PFA stock solution to target PFA concentration of 500 ppm. The resulting solution was stored under ambient conditions, and the level of PFA was monitored by iodometric titration at the specific time point.

[12] = 300 ppm PFA pH 6.84 / 368 ppm POAA pH 6.73 (molar equivalent), 5 minutes
[13] = 300 ppm PFA pH 6.84 / 368 ppm POAA pH 6.73 (molar equivalent), 10 minutes
[14] = 400 ppm PFA pH 7.19 / 490 ppm POAA pH 6.78 (molar equivalent), 5 minutes
[15] = 400 ppm PFA pH 7.19 / 490 ppm POAA pH 6.78 (molar equivalent), 10 minutes
[16] = 300 ppm PFA pH 6.73 / 368 ppm POAA pH 6.88, 5 minutes
[17] = 300 ppm PFA pH 6.73 / 368 ppm POAA pH 6.88, 10 minutes
[18] = 400 ppm PFA pH 6.95 / 490 ppm POAA pH 6.65, 5 minutes
[19] = 400 ppm PFA pH 6.95 / 490 ppm POAA pH 6.65, 10 minutes
[20] = 20 ppm PFA pH 6.61 / 24.8 ppm POAA pH 6.73, 5 minutes
[21] = 30 ppm PFA pH 6.74 / 37.6 ppm POAA pH 6.90, 5 minutes
[22] = 50 ppm PFA pH 6.60 / 62.4 ppm POAA pH 6.98, 5 minutes

O=COO [PFA, peroxyformic acid]
anti-biofilm efficacy compared with POAA ([1]; 50 ppm PFA 15 minutes to 3 hours vs 200 ppm POAA 3 hours, FIG. 12): greater anti-biofilm efficacy
anti-biofilm efficacy compared with POAA ([1]; 3 hours exposure, concentration lower than POAA, FIG. 11): significantly greater anti-biofilm efficacy
Average Log CFU/cm2 [2]: 3.22 Log CFU/cm2
Log reduction [2]: 0.83 Log
CFU/cm2 ([2]; single samples): 1.84E+03 CFU/cm2 and 1.42E+03 CFU/cm2 and 1.72E+03 CFU/cm2
CFU/ml ([2]; single samples): 9.20E+02 CFU/ml and 7.10E+02 CFU/ml and 8.60E+02 CFU/ml
Log CFU/cm2 ([2]; single samples): 3.26 Log CFU/cm2 and 3.15 Log CFU/cm2 and 3.24 Log CFU/cm2
Log10 Growth ([3]; 200 ppm PFA pH 5.81, 35°C): <2.18 Log10
Log10 Reduction ([3]; 200 ppm PFA pH 5.81, 35°C): >3.87 Log10
Log10 Growth ([3]; 250 ppm PFA pH 5.82, 35°C): <2.18 Log10
Log10 Reduction ([3]; 250 ppm PFA pH 5.82, 35°C): >3.87 Log10
Log10 Growth ([3]; 300 ppm PFA pH 5.91, 35°C): <2.18 Log10
Log10 Reduction ([3]; 300 ppm PFA pH 5.91, 35°C): >3.87 Log10
Log10 Growth ([3]; 350 ppm PFA pH 5.88, 35°C): <2.18 Log10
Log10 Reduction ([3]; 350 ppm PFA pH 5.88, 35°C): >3.87 Log10
Log10 Growth ([4]; 200 ppm PFA pH 5.81, 35°C): <2.18 Log10
Log10 Reduction ([4]; 200 ppm PFA pH 5.81, 35°C): >3.91 Log10
Log10 Growth ([4]; 250 ppm PFA pH 5.82, 35°C): <2.18 Log10
Log10 Reduction ([4]; 250 ppm PFA pH 5.82, 35°C): >3.91 Log10
Log10 Growth ([4]; 300 ppm PFA pH 5.91, 35°C): <2.18 Log10
Log10 Reduction ([4]; 300 ppm PFA pH 5.91, 35°C): >3.91 Log10
Log10 Growth ([4]; 350 ppm PFA pH 5.88, 35°C): <2.18 Log10
Log10 Reduction ([4]; 350 ppm PFA pH 5.88, 35°C): >3.91 Log10
Log10 Growth ([5]; 200 ppm PFA pH 5.81, 35°C): >4.22 Log10
Log10 Reduction ([5]; 200 ppm PFA pH 5.81, 35°C): <1.89 Log10
Log10 Growth ([5]; 250 ppm PFA pH 5.82, 35°C): 3.55 Log10
Log10 Reduction ([5]; 250 ppm PFA pH 5.82, 35°C): 2.56 Log10
Log10 Growth ([5]; 300 ppm PFA pH 5.91, 35°C): 3.38 Log10
Log10 Reduction ([5]; 300 ppm PFA pH 5.91, 35°C): 2.73 Log10
Log10 Growth ([5]; 350 ppm PFA pH 5.88, 35°C): 3.46 Log10
Log10 Reduction ([5]; 350 ppm PFA pH 5.88, 35°C): 2.65 Log10
reduction in B. subtillis spores compared with POAA ([6]; 5 and 10 minutes, lower concentrations than POAA, FIG. 17): increased reduction
Average CFU/mL [6, 12]: 3.25E+03 CFU/mL
Log10 Growth [6, 12]: 3.51 Log10
Log10 Reduction [6, 12]: 2.28 Log10
Average CFU/mL [6, 13]: 4.50E+01 CFU/mL
Log10 Growth [6, 13]: 1.65 Log10
Log10 Reduction [6, 13]: 4.14 Log10
Average CFU/mL [6, 14]: 3.45E+03 CFU/mL
Log10 Growth [6, 14]: 3.54 Log10
Log10 Reduction [6, 14]: 2.26 Log10
Average CFU/mL [6, 15]: 1.30E+03 CFU/mL
Log10 Growth [6, 15]: 3.11 Log10
Log10 Reduction [6, 15]: 2.68 Log10
Average CFU/mL [7, 16]: >3.0E+05 CFU/mL
Log10 Growth [7, 16]: >5.48 Log10
Log10 Reduction [7, 16]: <2.26 Log10
Average CFU/mL [7, 17]: 1.28E+05 CFU/mL
Log10 Growth [7, 17]: 5.11 Log10
Log10 Reduction [7, 17]: 2.63 Log10
Average CFU/mL [7, 18]: >3.0E+05 CFU/mL
Log10 Growth [7, 18]: >5.48 Log10
Log10 Reduction [7, 18]: <2.26 Log10
Average CFU/mL [7, 19]: 7.50E+04 CFU/mL
Log10 Growth [7, 19]: 4.88 Log10
Log10 Reduction [7, 19]: 2.86 Log10
Average CFU/mL [8, 20]: 6.30E + 03 CFU/mL
Log10 Growth [8, 20]: 3.80 Log10
Average CFU/mL [8, 21]: 2.15E + 02 CFU/mL
Log10 Growth [8, 21]: 2.33 Log10
Average CFU/mL [8, 22]: <140 CFU/mL
Log10 Growth [8, 22]: <2.15 Log10
Average CFU/mL [9, 20]: <140 CFU/mL
Log10 Growth [9, 20]: <2.15 Log10
Average CFU/mL [9, 21]: <140 CFU/mL
Log10 Growth [9, 21]: <2.15 Log10
Average CFU/mL [9, 22]: <140 CFU/mL
Log10 Growth [9, 22]: <2.15 Log10
Average CFU/mL [10, 20]: <140 CFU/mL
Log10 Growth [10, 20]: <2.15 Log10
Average CFU/mL [10, 21]: <140 CFU/mL
Log10 Growth [10, 21]: <2.15 Log10
Average CFU/mL [10, 22]: <140 CFU/mL
Log10 Growth [10, 22]: <2.15 Log10
impact of soils on the stability of PFA [11]: no impact
